Laboratory results as given in ChEMBL document CHEMBL1130144, “Ras farnesyltransferase: a new therapeutic target” (J Med Chem, 1997).
Non-standard residues stand in square brackets, D forms with d. Residues, ends and D or L forms follow the SMILES beside them. *: point of attachment. Cbz = O=C(OCc1ccccc1)*; Bn = c1ccc(C*)cc1

Experiments:
[1] = biological target: T1, Protein farnesyltransferase (Rattus norvegicus, UniProt Q02293+Q04631); experiment: Activity against rat Farnesyltransferase; assay type: protein-complex assay
[2] = biological target: T2, Protein farnesyltransferase (Homo sapiens, UniProt P49354+P49356); experiment: Activity against Farnesyltransferase; assay type: protein-complex assay
[3] = biological target: T2, Protein farnesyltransferase; experiment: Concentration inhibiting farnesylation of p21ras in Ras-transformed cells; assay type: functional, cell-based
[4] = biological target: T1, Protein farnesyltransferase; experiment: Activity against rat brain Farnesyltransferase
Farnesyltransferase = biological target: T3, Farnesyltransferase (Saccharomyces cerevisiae S288c, UniProt P22007+P29703); experiment: Activity against yeast Farnesyltransferase; assay type: protein-complex assay
T3 sequence (P29703 whole entry): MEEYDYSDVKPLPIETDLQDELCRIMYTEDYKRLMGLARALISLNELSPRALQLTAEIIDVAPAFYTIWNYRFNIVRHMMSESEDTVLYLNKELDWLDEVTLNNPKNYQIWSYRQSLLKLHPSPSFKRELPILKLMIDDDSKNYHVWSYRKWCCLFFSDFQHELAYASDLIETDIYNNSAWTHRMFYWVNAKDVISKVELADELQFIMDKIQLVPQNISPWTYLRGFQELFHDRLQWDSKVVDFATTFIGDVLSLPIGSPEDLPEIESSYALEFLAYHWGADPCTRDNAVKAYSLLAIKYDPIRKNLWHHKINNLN
T3 sequence (P22007 whole entry): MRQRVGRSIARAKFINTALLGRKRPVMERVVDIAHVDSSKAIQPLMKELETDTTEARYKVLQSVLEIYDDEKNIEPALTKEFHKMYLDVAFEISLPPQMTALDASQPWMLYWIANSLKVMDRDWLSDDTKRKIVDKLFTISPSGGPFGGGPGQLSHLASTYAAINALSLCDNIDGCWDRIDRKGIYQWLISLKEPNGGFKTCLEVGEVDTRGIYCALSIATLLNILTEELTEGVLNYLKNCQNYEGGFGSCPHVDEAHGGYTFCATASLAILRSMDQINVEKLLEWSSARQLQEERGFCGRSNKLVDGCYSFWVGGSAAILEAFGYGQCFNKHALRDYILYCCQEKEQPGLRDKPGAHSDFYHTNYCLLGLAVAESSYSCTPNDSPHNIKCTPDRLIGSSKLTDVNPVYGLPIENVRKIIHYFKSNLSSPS

[5] = biological target: Protein farnesyltransferase (Sus scrofa); experiment: Activity against pig Farnesyltransferase
[6] = biological target: T2, Protein farnesyltransferase; experiment: Activity against human Farnesyltransferase; assay type: protein-complex assay
[7] = biological target: Protein farnesyltransferase (Bos taurus, UniProt P29702+P49355); experiment: Activity against bovine Farnesyltransferase; assay type: protein-complex assay
[8] = biological target: Geranylgeranyl transferase type I (Homo sapiens, UniProt P49354+P53609); experiment: Activity against Geranylgeranyl transferase type I; assay type: protein-complex assay
NIH3T3 = experiment: Inhibition of Ras processing in v-Ras-transformed NIH 3T3 cell growth in soft agar at 50 uM; assay type: functional, cell-based; details: Mus musculus
[9] = biological target: T4, Protein farnesyltransferase (Mus musculus) (UniProt Q61239+Q8K2I1); experiment: (§1) Inhibition of Ras-processing in H-Ras transformed NIH3T3 fibroblasts; assay type: functional, cell-based
[10] = biological target: Protein farnesyltransferase (Mus musculus, UniProt Q61239+Q8K2I1); experiment: as §1; assay type: functional, cell-based
[11] = biological target: T4, Protein farnesyltransferase (Mus musculus); experiment: Concentration disrupting H-Ras processing in human H-Ras BALB/c 3T3 cells; assay type: functional, cell-based
[12] = biological target: T2, Protein farnesyltransferase; experiment: Activity against Ras Farnesyltransferase from human colon carcinoma; assay type: protein-complex assay
[13] = biological target: T2, Protein farnesyltransferase; experiment: Activity against Ras Farnesyltransferase from Burkett's lymphoma.; assay type: protein-complex assay
[14] = biological target: T2, Protein farnesyltransferase; experiment: Inhibition of H-Ras Farnesyltransferase; assay type: protein-complex assay
Homo sapiens = experiment: Inhibition of EJ-1 human bladder carcinoma growth at 100 mg/kg; assay type: functional

CSCCC(NC(=O)CN1C(=O)[C@H](N(C)C(=O)[C@H](N)CS)NC(c2ccccc2)c2ccccc21)C(=O)O (stereo partly specified)
IC50 [1]: 0.79 nM

O=C(N[C@H](Cc1cnc[nH]1)C(=O)N[C@@H](Cc1ccc(OCc2ccccc2)cc1)C(=O)NCCOCc1ccccc1)OCc1ccccc1
IC50 [2]: 20 nM

COC(=O)C(CCSC)NC(=O)CN1C(=O)[C@H](N(C)C(=O)[C@H](N)CS)NC(c2ccccc2)c2ccccc21 (stereo partly specified)
IC50 [1]: 0.85 nM

CCC(OCCCCNCCSS(=O)(=O)O)C1CCCCC1 (stereo unspecified)
Concentration [3]: 25 µM
IC50 [4]: 2000 nM

CCCCC(C)/C=C(C)/C=C(\C)CC(=O)NC1=CC(O)(/C=C/C=C/C=C/C(=O)NC2=C(O)CCC2=O)C2OC2C1=O (stereo unspecified)
IC50 (Farnesyltransferase): 5000 nM

CC(C)=CCC/C(C)=C/CC/C(C)=C/CONC(=O)COP(=O)(O)O
IC50 [2]: 75 nM

CC(C)=CCC/C(C)=C/CC/C(C)=C/C(=O)C(F)(F)P(=O)(O)O
IC50 [5]: 350 nM

CCC(CC(C)C(=O)O)C(=O)CC/C1=C/C(C)C/C(C)=C/C(C)C(O)C(C)CCC(CCCC/C=C/C(C)CCC(C)OC(=O)CC(CC(=O)O)C(=O)O)OC(=O)CC(C(=O)O)CC(=O)OC1 (stereo unspecified) [ACTINOPLANIC ACID A]
IC50 [6]: 230 nM

CC[C@@H](C)[C@H](NC[C@@H](NC[C@@H](N)CS)[C@H](C)CC)C(=O)N[C@H]1CCOC1=O
IC50 [7]: 280 nM
IC50 [8]: > 10000 nM
IC50 (NIH3T3): 50000 nM

C[C@@H](NC(=O)[C@H](Cc1c[nH]c2ccccc12)NC(=O)[C@H](COCc1ccccc1)NC(=O)[C@H](Cc1ccc(OCc2ccccc2)cc1)NC(=O)[C@@H](Cc1c[nH]cn1)NC(=O)OCc1ccccc1)C(N)=O (Cbz-[dH]Y(Bn)S(Bn)W[dA]-NH2)
Concentration [9]: 25 µM
IC50 [2]: 20 nM

C[C@@H](NC(=O)[C@H](Cc1c[nH]c2ccccc12)NC(=O)[C@H](COCc1ccccc1)NC(=O)[C@H](Cc1ccc(OCc2ccccc2)cc1)NC(=O)[C@H](Cc1c[nH]cn1)NC(=O)OCc1ccccc1)C(N)=O
IC50 [10]: 420 nM

CN(C(=O)[C@@H](Cc1c[nH]cn1)NC(=O)OCc1ccccc1)[C@@H](Cc1ccc(OCc2ccccc2)cc1)C(=O)NCCOCc1ccccc1
Concentration [9]: 2.5 µM

COC(=O)[C@H](CCSC)NC(=O)[C@@H](NC(=O)[C@@H](NC(=O)CCP(=O)(O)C/C=C(\C)CC/C=C(\C)CCC=C(C)C)C(C)C)C(C)C
Concentration [9]: 0.1 µM

CC(C)=CCC/C(C)=C/CC/C(C)=C/CONC(=O)CP(=O)(O)OCOC(=O)C(C)(C)C
IC50 [2]: 2610 nM

O=C(CN(Cc1ccc(OCc2ccccc2)cc1)C(=O)[C@H](Cc1c[nH]cn1)NC(=O)OCc1ccccc1)NCCOCc1ccccc1
Concentration [9]: 1 µM
IC50 [2]: 260 nM

N[C@@H](CS)CNc1ccc(-c2cccc(C(=O)O)c2)cc1
Concentration [11]: 50 µM
IC50 [4]: 50 nM

CCC(C)[C@@H](CO[C@@H](Cc1ccccc1)C(=O)N[C@@H](CCS(C)(=O)=O)C(=O)OC)NC[C@@H](N)CS (stereo partly specified)
IC50 [7]: 240 nM
IC50 (NIH3T3): 10000 nM

CSC[C@H](NC(=O)c1cccc(CNC(=O)[C@@H](N)CS)c1)C(=O)O
IC50 [12]: 60 nM
IC50 [13]: 120 nM

CCC/C=C\c1ccccc1/C=C/C(=O)N[C@H](Cc1ccc(O)cc1)C(=O)N(C)C(Cc1ccc(OC)c(O)c1Cl)C(=O)N(C)[C@@H](Cc1ccccc1)C(=O)OC[C@@H]1NC(=O)CNC1=O (stereo partly specified)
IC50 [6]: 100 nM

CSCC[C@H](NC(=O)[C@H](/C=C\[C@@H](/C=C/[C@@H](N)CS)C(C)C)Cc1ccccc1)C(=O)O
IC50 [14]: 11 nM
inhibition in vivo at 100 mg/kg (Homo sapiens): 60%

CC(C)(C)[C@H](NC[C@@H](N)CS)C(=O)N1Cc2ccccc2C[C@H]1C(=O)N[C@@H](CCC(N)=O)C(=O)O
IC50 [1]: 2.8 nM
IC50 [8]: 1400 nM
